# Measurements: patent US20260209201A1, “TRISULFIDE COMPOUND AND CLATHRATE THEREOF” (Kyowa Pharma Chemical Co., Ltd., priority 2022, published 2026)
# Test: Thermal stability test (Test Example 1): heating at 100° C. for 5 hours, residual rate by HPLC
# Type: physicochemical
# Settings: heated at 100° C.; for residual rate: amount before heating set at 100%
# Procedure: The thermal stability of (R)-α-lipoic acid, (R)-lipoic acid trisulfide, and compound (12-1) was evaluated as follows. Each compound was placed in a round-bottom flask and heated at 100° C. for 5 hours. Every hour, a sample was taken from the flask, dissolved in a methylene chloride/methanol mixture (1:1), and subjected to HPLC. The residual rate over time was calculated from the area values of each component.
# In FIG. 1, the residual rate on the vertical axis was calculated from the degree of decomposition over time for each sample, with the amount before heating set at 100%. […] In addition, (R)-α-lipoic acid and (R)-lipoic acid trisulfide melted immediately after the start of heating, and insoluble by-products were formed. […] This is presumed to be due to the high melting point of compound (12-1) and suppression of intermolecular polymerization. From the above, it was confirmed that the compound or salt represented by Formula (1) has higher thermal stability than (R)-α-lipoic acid and (R)-lipoic acid trisulfide.
residual rate (after 5 hours),residual rate (at 1 hour),decomposition (at 2 hours),SMILES
about 50%,below 60%,,O=C(O)CCCC[C@@H]1CCSS1 [(R)-α-lipoic acid]
about 70%,,no decomposition,O=C(O)CCCC[C@@H]1CCSSS1 [(R)-lipoic acid trisulfide]
≥ 95%,,,O=C(CCCC[C@@H]1CCSSS1)N1CCN(C(=O)CCCC[C@@H]2CCSSS2)CC1 [Compound (12-1)]
